US20250101003A1, “SPIROCYCLIC CAV2.3 ANTAGONISTS” (LARIO THERAPEUTICS LIMITED, priority 2021, published 2025)

target: Cav2.3 (Homo sapiens, UniProt Q15878); assay: Human Cav2.3 channel calcium-influx assay; type: cell-based; conditions: HEK-293 T-Rex/Kir2.1/Cav2.3e-β4-α2δ1 cells, Fluo8 fluorescence, without pluronic acid; read-out: Cav2.3 (pIC50) (converted)
Experimental: HEK-293 T-Rex cells were transfected with pcDNA3.1-Kir2.1 to generate a stable cell line. After antibiotic selection, the obtained stable pools were analysed using FLIPR^TETRA (membrane potential assay), and a limiting dilution was performed and a HEK-293 T-Rex/Kir2.1 clone was selected. The clone was transfected with pcDNA3.1-Cav2.3e and pBud-Cav-β4-α2δ1 to generate a stable cell line where the Cav2.3e expression is inducible. After antibiotic selection, functional clone pool analysis and two successive limiting dilutions, the final clone underwent a qPCR analysis and a biophysical and pharmacological validation using patch-clamp.
A compound plate, containing 10 test compounds in eight-points dose response with n=4, was prepared. Test compounds dose response curves were prepared in automated fashion in 100% DMSO at CyBio Felix and starting from a stock solution in 100% DMSO; a defined volume was serially moved into destination wells pre-filled with the desired DMSO volume; stock solution concentration volumes were dependent on the final compounds concentrations to be tested and the final DMSO content used in the assay. For the assay test compounds dose response curves ranged from 30 μM and half log dilution with 0.3% final DMSO. In order to obtain the 8-points dose response curve all the concentrations were created by starting from a 10 mM DMSO stock solution and then moving 9.5 μL into a destination well pre-filled with 20.5 μL of 100% DMSO and repeating this step seven times. This initial step was done into 96 MTP plates, 10 compounds/plate. One 384 MTP was then reformatted to contain all the 10 compounds at 8 concentrations, quadruplicate data points. This so obtained 384 MTP compound plate served as source plate in a “mother to child” process with a CyBi®-Well dispenser in which 0.7 μL of compounds were moved into a destination plate pre-filled with 57.6 μL of Tyrode's buffer 0 mM K+, thus obtaining 4× concentrated compounds solution. In columns 1-2 and 23-24 the control wells were added. Both “source” compound plate and “destination” compound plate were barcoded and a relationship between the two plates was thus generated.
The day before the experiment, cells were detached by gentle wash with DPBS, followed by 5 min incubation at 37° C. with Trypsin solution. Detached cells were diluted with OptiMEM+Doxycycline at 0.2 μg/mL, counted and plated in Poly-D-Lysine coated black/clear bottom (15.000 c/well in 20 μl/well) by the use of a MATRIX WellMate dispenser. Plates were placed into a humidified incubator at 37° C. with 5% CO2 until the experimental day. 24 h after seeding 10 μL/well of 1.5× Fluo8 NW dye solution prepared in Tyrode's buffer 0 mM K^+ were added on top of the seeding medium. Cell plates were incubated for 40-60 min at RT in the dark. We then Injected off-line 10 μL/well of test compounds and controls 4× concentrated in Tyrode's Buffer 0 mM K+ with the CyBi®-Well instrument. Cell plates were incubated 3 minutes at RT. Finally, we injected 20 μL/well of 3× concentrated activator solution (K20-Na130-Ca2 buffer: 20 mM KCl, 130 mM NaCl, 2 mM CaCl2, 10 mM HEPES, 10 mM Glucose, final concentrations, prepared starting from “KO-Na150-Ca2” and “K150-Na0-Ca2” buffers) at FDSS7000EX instrument and read emitted fluorescence for 130 seconds.
Data analysis was performed with Genedata Screener® software and reported compounds activity as % effect in relation to the normalization standards. The Kinetic Response Value (KRV) is calculated as follows:
KRV=Maximal fluorescence recorded from second 5 to second 130 minus baseline fluorescence, computed as average from second 1 to second 2, of the kinetic trace. The KRV was normalized versus Neutral Controls and Inhibitor Controls in order to obtain the Activity[%] for each well. […] Therefore, the compound activity values were scaled (based on the two references) to a common range (two-point normalization). […]

Cav2.3, sequence (Q15878 1-747 limits assumed): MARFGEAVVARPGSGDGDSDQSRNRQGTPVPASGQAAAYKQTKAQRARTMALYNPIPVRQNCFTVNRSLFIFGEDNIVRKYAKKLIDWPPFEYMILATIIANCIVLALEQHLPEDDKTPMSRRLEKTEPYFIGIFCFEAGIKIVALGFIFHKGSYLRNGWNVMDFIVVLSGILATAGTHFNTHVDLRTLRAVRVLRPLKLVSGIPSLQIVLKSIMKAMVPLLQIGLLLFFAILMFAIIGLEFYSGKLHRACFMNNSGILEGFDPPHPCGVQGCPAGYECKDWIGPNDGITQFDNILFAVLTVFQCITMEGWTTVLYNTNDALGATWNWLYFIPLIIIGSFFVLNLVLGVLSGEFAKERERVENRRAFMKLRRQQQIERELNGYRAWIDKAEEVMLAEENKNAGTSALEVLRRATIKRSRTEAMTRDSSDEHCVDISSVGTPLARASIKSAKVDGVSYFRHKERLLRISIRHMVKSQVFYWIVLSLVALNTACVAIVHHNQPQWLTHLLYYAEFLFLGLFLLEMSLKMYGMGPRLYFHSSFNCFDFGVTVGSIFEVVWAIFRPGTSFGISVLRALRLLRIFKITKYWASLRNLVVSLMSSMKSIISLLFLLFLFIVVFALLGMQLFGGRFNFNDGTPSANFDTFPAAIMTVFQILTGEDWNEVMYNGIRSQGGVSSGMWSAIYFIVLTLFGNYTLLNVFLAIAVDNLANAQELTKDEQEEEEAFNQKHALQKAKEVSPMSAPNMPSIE
Cav2.3, sequence (Q15878 1126-2313 limits assumed): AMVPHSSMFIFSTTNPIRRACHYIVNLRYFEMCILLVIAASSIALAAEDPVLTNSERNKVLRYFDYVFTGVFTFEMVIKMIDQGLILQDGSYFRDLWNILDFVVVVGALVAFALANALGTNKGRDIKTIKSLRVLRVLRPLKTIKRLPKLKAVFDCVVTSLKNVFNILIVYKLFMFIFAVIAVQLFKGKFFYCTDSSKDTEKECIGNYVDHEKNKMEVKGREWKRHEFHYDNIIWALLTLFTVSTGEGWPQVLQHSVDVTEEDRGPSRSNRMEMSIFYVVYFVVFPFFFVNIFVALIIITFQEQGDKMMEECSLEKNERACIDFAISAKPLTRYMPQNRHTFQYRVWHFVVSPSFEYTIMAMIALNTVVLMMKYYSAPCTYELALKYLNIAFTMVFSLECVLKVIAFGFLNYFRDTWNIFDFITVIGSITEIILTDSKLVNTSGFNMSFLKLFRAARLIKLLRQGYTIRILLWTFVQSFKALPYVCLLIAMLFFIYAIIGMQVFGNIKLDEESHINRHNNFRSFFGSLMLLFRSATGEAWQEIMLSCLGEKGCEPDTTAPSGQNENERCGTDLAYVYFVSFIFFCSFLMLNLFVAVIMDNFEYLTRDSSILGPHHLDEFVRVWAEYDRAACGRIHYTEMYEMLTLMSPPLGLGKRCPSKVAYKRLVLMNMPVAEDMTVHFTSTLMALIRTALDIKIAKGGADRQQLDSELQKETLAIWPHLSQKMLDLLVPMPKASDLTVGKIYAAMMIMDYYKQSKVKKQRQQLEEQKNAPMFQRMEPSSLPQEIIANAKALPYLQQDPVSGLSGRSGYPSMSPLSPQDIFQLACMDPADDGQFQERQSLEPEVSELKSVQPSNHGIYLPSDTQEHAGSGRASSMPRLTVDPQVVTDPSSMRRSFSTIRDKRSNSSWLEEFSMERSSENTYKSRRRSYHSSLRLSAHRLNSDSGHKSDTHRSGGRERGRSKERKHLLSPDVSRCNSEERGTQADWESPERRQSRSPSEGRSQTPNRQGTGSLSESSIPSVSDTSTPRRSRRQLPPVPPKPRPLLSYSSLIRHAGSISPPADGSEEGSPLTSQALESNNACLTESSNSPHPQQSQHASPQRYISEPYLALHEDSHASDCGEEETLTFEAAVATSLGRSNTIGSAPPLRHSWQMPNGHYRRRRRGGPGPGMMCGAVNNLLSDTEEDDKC

| SMILES | IC50 [µM] |
| --- | --- |
| CC1CC2(CCCC2)CN1S(=O)(=O)c1cccs1 (centres unmarked) [Example 73, 3-Methyl-2-(thiophen-2-ylsulfonyl)-2-azaspiro[4.4]nonane] | 1.7 |
| CC1CC2(CCN1S(=O)(=O)c1cccs1)CC2 (centres unmarked) [Example 74, 5-Methyl-6-(thiophen-2-ylsulfonyl)-6-azaspiro[2.5]octane] | 6.03 |
| O=S(=O)(c1cccs1)N1CC2(CCCC2)CC1C1CCCCC1 (centres unmarked) [Example 75, 3-Cyclohexyl-2-(thiophen-2-ylsulfonyl)-2-azaspiro[4.4]nonane] | 37.2 |
| Cc1ccc(S(=O)(=O)N2CC3(CCC3)CC2C)s1 (centres unmarked) [Example 76, 7-Methyl-6-((5-methylthiophen-2-yl)sulfonyl)-6-azaspiro[3.4]octane] | 7.94 |
| CC1CC2(CCC2)CN1S(=O)(=O)c1cncnc1 (centres unmarked) [Example 83, 7-Methyl-6-(pyrimidin-5-ylsulfonyl)-6-azaspiro[3.4]octane] | 8.91 |
| CC(C)Oc1cc(S(=O)(=O)N2CC3(CCC3)CC2C)ccn1 (centres unmarked) [Example 84, 6-((2-Isopropoxypyridin-4-yl)sulfonyl)-7-methyl-6-azaspiro[3.4]octane] | 4.47 |
| CC1CC2(CCC2)CN1S(=O)(=O)c1cccc2c1CN(C(=O)C(F)(F)F)CC2 (centres unmarked) [Example 85, 2,2,2-Trifluoro-1-(8-((7-methyl-6-azaspiro[3.4]octan-6-yl)sulfonyl)-3,4-dihydroisoquinolin-2(1H)-yl)ethan-1-one] | 19.1 |
| COCc1ncsc1S(=O)(=O)N1CC2(CCC2)CC1C (centres unmarked) [Example 89, 4-(Methoxymethyl)-5-((7-methyl-6-azaspiro[3.4]octan-6-yl)sulfonyl)thiazole] | 10 |
| CC1CC2(CCC2)CN1S(=O)(=O)c1scnc1CO (centres unmarked) [Example 90, (5-((7-Methyl-6-azaspiro[3.4]octan-6-yl)sulfonyl)thiazol-4-yl)methanol] | 11.2 |
| Cc1noc(C)c1C(=O)N1CCc2ccc(S(=O)(=O)N3CC4(CCC4)CC3C)cc2C1 (centres unmarked) [Example 93, (3,5-Dimethylisoxazol-4-yl)(7-((7-methyl-6-azaspiro[3.4]octan-6-yl)sulfonyl)-3,4-dihydroisoquinolin-2(1H)-yl)methanone] | 2.04 |
| CC(=O)N1CCc2ccc(S(=O)(=O)N3CC4(CCC4)CC3C)cc2C1 (centres unmarked) [Example 94, 1-(7-((7-Methyl-6-azaspiro[3.4]octan-6-yl)sulfonyl)-3,4-dihydroisoquinolin-2(1H)-yl)ethan-1-one] | 2 |
| Cc1cnc(S(=O)(=O)N2CC3(CCC3)CC2C)s1 (centres unmarked) [Example 95, 5-Methyl-2-((7-methyl-6-azaspiro[3.4]octan-6-yl)sulfonyl)thiazole] | 7.76 |
| CCOc1ccc2nc(S(=O)(=O)N3CC4(CCC4)CC3C)sc2c1 (centres unmarked) [Example 96, 6-Ethoxy-2-((7-methyl-6-azaspiro[3.4]octan-6-yl)sulfonyl)benzo[d]thiazole] | 9.33 |
| CC1CC2(CCC2)CN1S(=O)(=O)c1cccs1 (centres unmarked) [Example 102, 7-Methyl-6-(thiophen-2-ylsulfonyl)-6-azaspiro[3.4]octane] | 2.69 |
| Cc1nc(C)c(S(=O)(=O)N2CC3(CCC3)CC2C)s1 (centres unmarked) [Example 105, 2,4-Dimethyl-5-((7-methyl-6-azaspiro[3.4]octan-6-yl)sulfonyl)thiazole] | 4.57 |
| CC1CC2(CCC2)CN1S(=O)(=O)c1ccc(Cl)s1 (centres unmarked) [Example 108, 6-((5-Chlorothiophen-2-yl)sulfonyl)-7-methyl-6-azaspiro[3.4]octane] | 11.5 |
| CC1CC2(CCC2)CN1S(=O)(=O)c1cncs1 (centres unmarked) [Example 109, 5-((7-Methyl-6-azaspiro[3.4]octan-6-yl)sulfonyl)thiazole] | 3.98 |
| CC1CC2(CCC2)CN1S(=O)(=O)c1ccc(F)s1 (centres unmarked) [Example 110, 6-((5-fluorothiophen-2-yl)sulfonyl)-7-methyl-6-azaspiro[3.4]octane] | 5.01 |
| CC1CC2(CCC2)CN1S(=O)(=O)c1cncc(C#N)c1 (centres unmarked) [Example 111, 5-((7-methyl-6-azaspiro[3.4]octan-6-yl)sulfonyl)nicotinonitrile] | 1.95 |

The next lines start with the values.

| IC50 [µM] | SMILES |
| --- | --- |
| 9.77 | CC1CC2(CCC2)CN1S(=O)(=O)c1nc2ccccc2s1 (centres unmarked) [Example 67, 2-((7-Methyl-6-azaspiro [3.4]octan-6-yl)sulfonyl)benzo[d]thiazole] |
| 39.8 | CC1CC2(CCC2)CN1S(=O)(=O)c1ccc2oncc2c1 (centres unmarked) [Example 68, 5-((7-Methyl-6-azaspiro[3.4]octan-6-yl)sulfonyl)benzo[d]isoxazole] |
| 2.51 | CCC1CC2(CCC2)CN1S(=O)(=O)c1cccs1 (centres unmarked) [Example 69, 7-Ethyl-6-(thiophen-2-ylsulfonyl)-6-azaspiro[3.4]octane] |
| 4.37 | CCC1CC2(CCC2)CN1S(=O)(=O)c1ccco1 (centres unmarked) [Example 72, 7-Ethyl-6-(furan-2-ylsulfonyl)-6-azaspiro[3.4]octane] |
| 6.31 | CC1CC2(CCC2)CN1S(=O)(=O)c1ccc2ccccc2n1 (centres unmarked) [Example 79, 2-((7-Methyl-6-azaspiro[3.4]octan-6-yl)sulfonyl)quinoline] |
| 2.82 | Cc1ccnc2cc(S(=O)(=O)N3CC4(CCC4)CC3C)ccc12 (centres unmarked) [Example 80, 4-Methyl-7-((7-methyl-6-azaspiro[3.4]octan-6-yl)sulfonyl)quinoline] |
| 1.35 | COc1cc(S(=O)(=O)N2CC3(CCC3)CC2C)ccn1 (centres unmarked) [Example 86, 6-((2-Methoxypyridin-4-yl)sulfonyl)-7-methyl-6-azaspiro[3.4]octane] |
| 2 | CCC1CC2(CCC2)CN1S(=O)(=O)c1ccnc(OC)c1 (centres unmarked) [Example 87, 7-Ethyl-6-((2-methoxypyridin-4-yl)sulfonyl)-6-azaspiro[3.4]octane] |
| 2.51 | CCOc1cc(S(=O)(=O)N2CC3(CCC3)CC2C)ccn1 (centres unmarked) [Example 88, 6-((2-Ethoxypyridin-4-yl)sulfonyl)-7-methyl-6-azaspiro[3.4]octane] |
| 2.4 | CCC1CC2(CCC2)CN1S(=O)(=O)c1ccc2ccoc2c1 (centres unmarked) [Example 91, 6-(Benzofuran-6-ylsulfonyl)-7-ethyl-6-azaspiro[3.4]octane] |
| 2.45 | CCC1CC2(CCC2)CN1S(=O)(=O)c1ccnc(C)c1 (centres unmarked) [Example 92, 7-Ethyl-6-((2-methylpyridin-4-yl)sulfonyl)-6-azaspiro[3.4]octane] |
| 2.51 | CCC1CC2(CCCC2)CN1S(=O)(=O)c1cccs1 (centres unmarked) [Example 97, 3-Ethyl-2-(thiophen-2-ylsulfonyl)-2-azaspiro[4.4]nonane] |
| 2.45 | CCC1CC2(CCCC2)CN1S(=O)(=O)c1ccc2c(c1)CN(C(=O)C(F)(F)F)CC2 (centres unmarked) [Example 101, 1-(7-((3-Ethyl-2-azaspiro[4.4]nonan-2-yl)sulfonyl)-3,4-dihydroisoquinolin-2(1H)-yl)-2,2,2-trifluoroethan-1-one] |
